These results are taken from ChEMBL document CHEMBL1134711, “Pharmacophore-based discovery of 3,4-disubstituted pyrrolidines as a novel class of monoamine transporter inhibitors” (Bioorg Med Chem Lett, 2001).

Where only a bound is given, the exact number is not on record here.

The target in experiment [1] is Sodium-dependent serotonin transporter (Rattus norvegicus, UniProt P31652). As to the kind of experiment: Inhibition of [3H]5-HT uptake at Serotonin transporter in rat mid brain.
In experiment [2] the target is Norepinephrine transporter (Rattus norvegicus, UniProt Q9WTR4). As to the kind of experiment: Inhibition of [3H]NE uptake at Norepinephrine transporter in rat parietal/occipital cortex was determined.
Norepinephrine transporter, sequence (Q9WTR4 whole entry): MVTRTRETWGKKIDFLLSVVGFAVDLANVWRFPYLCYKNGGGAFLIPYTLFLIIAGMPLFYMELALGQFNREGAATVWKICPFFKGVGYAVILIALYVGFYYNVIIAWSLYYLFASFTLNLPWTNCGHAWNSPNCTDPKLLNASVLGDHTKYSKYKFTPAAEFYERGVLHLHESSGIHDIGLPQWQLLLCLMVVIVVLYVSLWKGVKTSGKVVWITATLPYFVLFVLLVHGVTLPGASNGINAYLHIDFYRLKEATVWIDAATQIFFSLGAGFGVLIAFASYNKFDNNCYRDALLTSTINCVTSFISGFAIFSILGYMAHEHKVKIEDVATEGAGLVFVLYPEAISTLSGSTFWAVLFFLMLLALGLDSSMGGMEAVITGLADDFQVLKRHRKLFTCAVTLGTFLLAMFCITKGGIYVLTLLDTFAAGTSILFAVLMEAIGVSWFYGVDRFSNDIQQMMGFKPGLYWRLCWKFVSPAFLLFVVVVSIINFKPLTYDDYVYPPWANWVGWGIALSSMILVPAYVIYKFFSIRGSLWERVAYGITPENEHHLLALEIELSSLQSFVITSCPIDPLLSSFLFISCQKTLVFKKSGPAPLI
In experiment [3] the target is T1, Sodium-dependent dopamine transporter (Rattus norvegicus, UniProt P23977). As to the kind of experiment: Inhibition of [3H]DA uptake at Dopamine transporter in rat cortex.
T1 sequence (P23977 whole entry): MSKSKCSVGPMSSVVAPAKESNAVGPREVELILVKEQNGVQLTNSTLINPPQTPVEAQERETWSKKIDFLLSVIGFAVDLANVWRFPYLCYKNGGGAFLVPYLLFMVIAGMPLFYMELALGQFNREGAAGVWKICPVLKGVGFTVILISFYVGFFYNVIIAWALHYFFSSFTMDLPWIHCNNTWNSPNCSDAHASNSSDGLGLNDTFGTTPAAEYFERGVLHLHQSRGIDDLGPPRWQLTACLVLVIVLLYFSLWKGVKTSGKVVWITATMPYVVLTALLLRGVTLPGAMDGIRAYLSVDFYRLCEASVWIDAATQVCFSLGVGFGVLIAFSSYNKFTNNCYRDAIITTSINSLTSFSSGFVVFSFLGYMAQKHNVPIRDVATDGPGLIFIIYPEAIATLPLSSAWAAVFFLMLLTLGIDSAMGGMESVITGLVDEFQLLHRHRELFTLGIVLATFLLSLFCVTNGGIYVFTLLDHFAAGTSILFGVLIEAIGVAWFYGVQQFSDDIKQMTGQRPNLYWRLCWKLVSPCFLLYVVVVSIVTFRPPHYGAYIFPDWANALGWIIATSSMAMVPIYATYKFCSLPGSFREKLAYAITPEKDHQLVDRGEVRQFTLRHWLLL
Experiment [4] is described as follows: In vitro Ki against [3H]mazindol binding.
Experiment [5] deals with T1, Sodium-dependent dopamine transporter. Nature of the experiment: Functional cocaine antagonism was evaluated by inhibition of [3H]dopamine reuptake at a concentration of 100 nM with cocaine.
The target is the same in experiment [6]. As to the kind of experiment: Functional cocaine antagonism was evaluated by inhibition of [3H]dopamine reuptake.
The target is the same in experiment [7]. As to the kind of experiment: Functional cocaine antagonism was evaluated by inhibition of [3H]dopamine reuptake at a concentration of 300 nM with cocaine.
The target is the same in experiment [8]. As to the kind of experiment: Functional cocaine antagonism was evaluated by inhibition of [3H]dopamine reuptake at a concentration of 30 nM with cocaine.

Sodium-dependent serotonin transporter, sequence (P31652 whole entry): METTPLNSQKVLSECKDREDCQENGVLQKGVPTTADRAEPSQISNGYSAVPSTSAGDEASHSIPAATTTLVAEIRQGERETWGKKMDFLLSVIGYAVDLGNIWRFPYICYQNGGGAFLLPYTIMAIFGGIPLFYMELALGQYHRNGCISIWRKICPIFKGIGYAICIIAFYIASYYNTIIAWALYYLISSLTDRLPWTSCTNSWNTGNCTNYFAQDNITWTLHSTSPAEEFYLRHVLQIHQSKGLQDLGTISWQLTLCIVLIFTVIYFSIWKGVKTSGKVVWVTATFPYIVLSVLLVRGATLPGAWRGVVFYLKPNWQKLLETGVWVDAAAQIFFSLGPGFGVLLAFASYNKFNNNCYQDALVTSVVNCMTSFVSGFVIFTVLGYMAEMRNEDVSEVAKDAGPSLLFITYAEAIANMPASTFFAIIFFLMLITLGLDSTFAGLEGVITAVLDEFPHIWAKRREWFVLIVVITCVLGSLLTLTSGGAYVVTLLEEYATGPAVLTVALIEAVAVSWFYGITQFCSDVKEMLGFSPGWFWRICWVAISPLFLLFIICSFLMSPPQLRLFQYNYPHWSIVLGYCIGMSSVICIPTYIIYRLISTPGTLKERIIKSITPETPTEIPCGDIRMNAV

Take `CN1C[C@@H](C(=O)c2ccc(F)cc2)[C@H](c2ccc(F)cc2)C1`: the inhibition constant (Ki) (usually the equilibrium dissociation constant of an inhibitor or competing ligand from its target) in experiment [1] turned out to be 380 nM; in experiment [2], 800 nM; in experiment [3] it was 3960 nM.

As to `CN1C[C@@H](C(=O)c2ccc(Cl)cc2)[C@H](c2ccccc2F)C1`, the Ki in experiment [3] is 1280 nM.

The compound `COc1ccccc1C(=O)[C@@H]1CN(c2ccccc2)C[C@H]1c1ccc(Cl)cc1` came in with a Ki in experiment [3] of over 10000 nM.

In experiment [3], `COc1ccc(C(=O)[C@@H]2CN(C)C[C@H]2c2ccc(Cl)cc2)cc1` displayed a Ki of 1160 nM.

Compound `CN1C[C@@H](C(=O)c2ccc(Cl)cc2)[C@H](c2ccc(Cl)cc2Cl)C1` gave a Ki in experiment [3] of 1260 nM.

Consider `Cc1ccc([C@@H]2CN(c3ccccc3)C[C@H]2C(=O)c2ccc(F)cc2)cc1`, for which the Ki in experiment [3] was over 10000 nM.

For `Cc1ccc([C@@H]2CN(C)C[C@H]2C(=O)c2ccccc2F)cc1`, in experiment [3], the Ki is 1930 nM.

For `CN1C[C@@H](C(=O)c2ccc(Cl)cc2)[C@H](c2ccccc2)C1`, the Ki in experiment [4] was found to be 1250 nM; in experiment [1] it was 520 nM; in experiment [2], 430 nM; in experiment [3], 1220 nM.

For `CN1C[C@@H](C(=O)c2ccccc2Cl)[C@H](c2ccc(Cl)cc2)C1`, the Ki came out at 340 nM in experiment [4], 540 nM in experiment [1], 69 nM in experiment [2] and 610 nM in experiment [3].

Consider `CN1C[C@@H](C(=O)c2ccccn2)[C@H](c2ccccc2)C1`, for which the figures for the Ki in experiment [4], in experiment [1] and in experiment [3] were 510 nM, 830 nM and 630 nM, respectively. Also, the values for the 50% inhibitory concentration (IC50) in experiment [5], in experiment [6] and in experiment [7] were 494 nM, 663 nM and 645 nM, respectively.

`CN1C[C@@H](C(=O)c2cccs2)[C@H](c2ccc(Cl)cc2)C1`: the IC50 (usually the concentration that inhibits the measured activity by half) was 46 nM in experiment [8], 641 nM in experiment [5] and 308 nM in experiment [6]. Further, the Ki came out at 84 nM in experiment [4], 230 nM in experiment [1], 31 nM in experiment [2] and 200 nM in experiment [3].

Turning to `O=C(c1ccccn1)[C@@H]1CN(c2ccccc2)C[C@H]1c1ccccc1`, the Ki in experiment [4], in experiment [1], in experiment [2] and in experiment [3] was over 10000 nM each time.

As to `CN1C[C@@H](C(=O)c2ccccc2)[C@H](c2ccccc2)C1`, the Ki in experiment [4] was found to be 1180 nM; in experiment [1] it was 750 nM; in experiment [2], 150 nM; in experiment [3], 1410 nM.

In turn, `O=C(c1ccccc1)[C@@H]1CN(c2ccccc2)C[C@H]1c1ccc(Cl)cc1` displayed a Ki in experiment [3] of over 10000 nM.

Regarding `O=C(c1cccs1)[C@@H]1CN(c2ccccc2)C[C@H]1c1ccccc1`, the Ki in experiment [4], in experiment [1], in experiment [2] and in experiment [3] was over 10000 nM each time.

As for `CN1C[C@@H](C(=O)c2cccc(C(F)(F)F)c2)[C@H](c2ccc(Cl)cc2)C1`, the Ki in experiment [3] is 3170 nM.

`COC(=O)[C@@H]1C2CC[C@@H](C[C@@H]1OC(=O)c1ccccc1)N2C` (single isomer, unassigned) [COCAINE] returned a Ki in experiment [4] of 230 nM.
